Test results published in US20230348506A1, “MACROCYCLIC PANTETHEINE DERIVATIVES AND USES THEREOF” (VectivBio Comet AG, priority 2019, published 2023).

Tests used:
Assay type in all cases: cell-based, human
[1] = system: primary adherent fibroblast cell line derived from an Methylmalonic Acidemia (MMA) patient (GM01673, Coriell Institute for Medical Research); assay: Mitochondrial respiration (Seahorse XFe96, OCR), Spare Capacity AUC; details: 10 μM compound; medium with 10 mM glucose, 2 mM glutamine, 1 mM pyruvate; 1 μM FCCP for 20 cycles; relative to vehicle
Experimental: The effect of the compounds of the present disclosure on mitochondrial respiration was measured with a XFe96 Extracellular Flux Analyzer (Seahorse Bioscience, Agilent Technologies) and Oxygen consumption Rate (OCR) and Extracellular acidification rate (ECAR) determined.
Cell culture and treatments. Primary adherent fibroblasts were cultured in minimum essential medium (MEM) (Gibco, 25030081) supplemented with 2 mM L-Glutamine (Gibco, 25030081), 15% fetal bovine serum (FBS) (Gibco, 26400044) and 1% penicillin/streptomycin (Gibco, 5140122) at 37° C. and 5% CO2. Cells were collected for either passaging or experiment at ˜70-80% confluence. Cells were obtained by trypsinization and seeded at 10,000 cells/well in cell culture microplates (Seahorse Bioscience, 101085-004) and allowed to adhere for 48 hours in culture media. […]
Determining the optimized cell density and concentrations for stress test, such as FCCP, were achieved through methods well known to those of skill in the art. After baseline measurements of OCR, cells were challenged with compounds of the present disclosure at different concentrations (10 to 50 μM) or vehicle (DMSO, 0.1%) and a post-compound baseline was recorded. OCR was measured after sequentially adding to each well 1.5 μg/ml oligomycin (inhibitor of ATP synthase Sigma-Aldrich, 753531), then maximal OCR was determined with carbonyl cyanide 4-(trifluoromethoxy) phenylhydrazone (FCCP, Sigma-Aldrich, C2920), (uncoupler of oxidative phosphorylation) and 1.0 μM of rotenone (Sigma-Aldrich, R8875) plus antimycin A (Sigma-Aldrich, A8674) (inhibitors of mitochondrial complex I and III) for determination of rotenone-antimycin insensitive respiration together with Hoechst for nuclear staining in situ when normalized to cell counts. After the analysis and nuclear staining, the XFp microplate was transferred to the Cytation 5, and the nuclear images were captured, the individual nuclei were identified and counted by BioTek Gen5 software. […]

[2] = system: MMA Patient fibroblasts (GM01673, Coriell Institute for Medical Research); assay: Mitochondrial fusion and networking (high-content imaging); set-up: key: Mitochondrial elongation and networking was described as slight, mild or good; Mitochondrial elongation and networking was described as slight, mild or good; Mitochondrial elongation and networking was described as slight, mild or good; details: 10 μM compound, 2 hours, compared to vehicle control
Experimental: Cells were seeded in 96-well plates (density 3000 cells/well) in culture minimum MEM (GIBCO, 10370-021) supplemented with 2 mM L-Glutamine (Thermo Fisher Scientific), 15% FBS (Thermo Fisher Scientific 26400044) and 1% penicillin/streptomycin. Cells were incubated for 48 hours (37° C, 5% CO2), then treated with 10 μM compounds from the present disclosure, 1% DMSO (vehicle) or 5 μM FCCP (control) for 2 hours in fasted conditional medium: Agilent XF DMEM (Agilent 103575-100), pH 7.4 supplemented with 10% FBS (Thermo Fisher Scientific 26400044), 0.03% penicillin/streptomycin 1 mM glucose, 2 mM L-glutamine and 1 mM pyruvate.
After treatment, media was removed, and cells were stained with 100 μl of 1×mixture dye solution of 1 μg/mL JC-1 (Invitrogen Cat #T3168) and 50 ng/ml MitoTracker deep red (Invitrogen Cat #M22426) at 37° C. for 30 minutes. Next, staining was removed, the cells were washed once with 150 μl PBS, and 150 μl of fasted conditional medium (described above) is added to each well. Analysis was carried out on live cells using a Thermo Scientific CellInsight CX7 LZR High-Content Screening Platform. Mitochondrial elongation and networking was described as slight, mild or good.

HepG2 cells = assay: Glucose uptake (Glucose Uptake-Glo assay); details: 10 μM compound; insulin control 100 nM
Experimental: The effect of compounds from the present disclosure on glucose uptake was determined in HepG2 cells (ATCC, HB-8065) using the glucose uptake Glo Assay Kit (Promega, J1343 according to manufacturer instructions. HepG2 cells were cultured in complete DMEM-glucose media (Gibco) supplemented with 10% FBS (37° C. incubator with 5% CO2) and seeded in 96-well plates at 30,000 cells/well. After removing the complete media, 100 μL/well of serum-free, high-glucose DMEM media were added to the wells and incubated overnight (37° C. incubator with 5% CO2). Media was then replaced with 100 μL/well DPBS containing 0.6% BSA and starved for 1 hour. Next, DPBS was removed and 45 μl/well of insulin (100 nM) or compounds (10 μM-50 μM) were added to the wells and incubated for 10 minutes (37° C. incubator with 5% CO2). Insulin and compounds were prepared in DPBS with 0.6% BSA with a final DMSO concentration of 0.1%. Next, 5 μL of 2DG (10 mM) in DPBS were added per well and allowed to incubate for 20 minutes followed by addition of 25 μL stop buffer. 37.5 μL of the mixture were then transferred to a new plate and 12.5 μL of Neutralization buffer added to the wells. After, 50 μL of 2DG6P detection Reagent were added and incubated for 0.5-1 hour at room temperature. Luminescence was measured with 0.3-1 second integration on a luminometer. […]

## CC(C)(CO)[C@H]1OC(=O)CCC(=O)SCCNC(=O)CCNC1=O [Compound 61, (R)-2-(1-hydroxy-2-methylpropan-2-yl)-1-oxa-11-thia-4,8-diazacyclopentadecane-3,7,12,15-tetraone]
[1]
  increase of Spare Capacity AUC: > 20%
[2]
  mitochondrial elongation and networking: slight
HepG2 cells
  stimulation of Glucose Uptake, % of insulin control: at least 15%
